In patent US20250333683A1, “A METHOD AND SYSTEM FOR SIMULATING STEM CELL DIFFERENTIATION DYNAMICS” (CellVoyant Technologies Limited, priority 2024, published 2025):

Test system: human pluripotent cells (hPCs)
Assay: Observed ground truth mesoderm differentiation (Brachyury immunofluorescence)
Assay type: cell-based
Method: Stem cell differentiation: To differentiate cells into cardiac mesoderm cells, cardiomyocytes and/or endothelial intermediate, protocol described in Giacomelli et al., [1] was adapted.
Briefly, human pluripotent cells (hPCs) were seeded, as a monolayer culture, into 96-well imaging plate in BPLE basal media for twenty-four hours, with the bovine serum albumin (BSA) polyvinylalcohol essential lipids (BPLE) basal media being supplemented with 20 ng/ml of ActinvinA (Peprotech, 120-14E-2 μG), 20 ng/ml of BMP4 (Peprotech, 120-05ET-2 μG) and varying concentrations of CHIR99201 (Selleckchem, S1263). CHIR99021 was removed randomly after either 24 or 48 hours of differentiation, to determine the effect of CHIR99021 on mesoderm differentiation rates.
The day after, the primary antibody was washed out, and the cells were incubated with the fluorescence-conjugated secondary antibody (1:1000) for 1 hour at room temperature. DAPI solution was used to detect nuclei.
Ground truth for fate forecasting was inferred by using Cellpose to segment individual cell nuclei on the DAPI channel. A Multi-Otsu threshold was carried out on the Brachury channel to separate the images into foreground and background. The total number of nucleii detected was recorded and the two sets of masks were correlated to determine the proportion of cells that were positive for the immunofluorescence marker. […]

Cc1c[nH]c(-c2cnc(NCCNc3ccc(C#N)cn3)nc2-c2ccc(Cl)cc2Cl)n1 [CHIR99021]
observed ground truth proportion of cells acquiring the mesodermal cell fate (CHIR99021 0.93 μM, applied for 24 hours): very low proportion
observed ground truth amount of Brachury positive cells after removal of CHIR99021 (CHIR99021 1.93 μM, removed after 48 hours): decrease in the amount of Brachury positive cells
